System: HaCaT cells
Test: ELTA labeling (32P-dATP, sequencing gel) of PAR isolated from H2O2-treated cells
Assay type: cell-based
Settings: HaCaT cells pre-treated with inhibitor prior to H2O2 induction of PAR (FIG. 6b)
Protocol: FIG. 6A-6B illustrates the detection of ADP-ribose length using ELTA. (a) A sequencing gel of the ELTA labeling reaction of ADP-ribose monomer (lane 1), PAR (lane 2), and of ADP-ribose monomer and polymer isolated from in vitro ADP-ribosylated PARP1 by NAD^+ in the presence of the PARP inhibitor Olaparib (lane 3), by NAD^+ for 10 min in the absence of Olaparib (lane 4) and by NAD^+ for 30 min (lane 5). As a comparison, the ADP-ribose monomer and polymer isolated from in vitro ADP-ribosylated PARP1 by NAD+ with a trace of ^32P-NAD+ in the presence of Olaparib for 30 min (lane 6), by NAD^+ for 10 min in the absence of Olaparib (lane 7) and by NAD^+ for 30 min (lane 8). (b) A sequencing gel of the ELTA labeling reaction of ADP-ribose monomer and polymer isolated from in vitro ADP-ribosylated haPARP (lane 1), from untreated cancer cells (lane 2), from cancer cells with DNA damage (lane 3), from cancer cells with DNA damage and treated with PARP inhibitor (lane 4) and from cancer cells with DNA damage and treated with PARG inhibitor (lane 5).
Next, the inventors tested whether ELTA can be used to examine PAR isolated from cells (FIG. 6b). PAR was retrieved from cells using a solid-phase extraction method that allows for the high recovery of PAR without any bias of different chain length. HaCaT cells were either untreated, H2O2-treated to induce PARylation, pre-treated with PARP inhibitor Olaparib prior to H2O2 induction of PAR, or pre-treated with inhibitor against the PAR-degrading enzyme PARG (PDD 00017273) prior to H2O2 induction of PAR. As a control, the inventors also isolated PAR from in vitro modified Herpetosiphon aurantiacus PARP (haPARP), which usually generates PAR of 2-25 mer (lane 1), using the same solid-phase extraction method. As expected, we observed significant PAR signals in H2O2-treated cell samples (FIG. 6b; lane 3), which is longer from the one isolated from haPARP (lane 1). […] Taken together, ELTA can assess the length of PAR isolated in vitro or from cells.

O=C(c1cc(Cc2n[nH]c(=O)c3ccccc23)ccc1F)N1CCN(C(=O)C2CC2)CC1 [Olaparib]
PAR signal isolated from cells: reduced the signal to background level

PDD 00017273
PAR length distribution isolated from cells: stronger signals were observed at a shorter range
PAR signal isolated from cells: enrichment of overall signals
